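48-hour exposure; five concentrations; linearly interpolated endpoints. The concentration for full growth arrest is given as TGI.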
Key:
Assay in all cases: NCI tumour cell line growth inhibition, 48 h
[1] = system: OVCAR-3 ovarian
[2] = system: HCT-15 colon
[3] = system: UACC-62 melanoma
[4] = system: SN12C renal
[5] = system: HOP-92 NSCLC
[6] = system: SK-MEL-2 melanoma
[7] = system: 786-0 renal
[8] = system: LOX IMVI melanoma
[9] = system: EKVX NSCLC
[10] = system: TK-10 renal
[11] = system: A549 NSCLC
[12] = system: NCI-H522 lung
[13] = system: SK-MEL-5 melanoma
[14] = system: OVCAR-4 ovarian
[15] = system: U251 CNS
[16] = system: MDA-MB-231 breast
[17] = system: MDA-N
[18] = system: SF-268 CNS
[19] = system: NCI-H460 lung
[20] = system: A498 renal
[21] = system: SF-295 CNS
[22] = system: SR leukemia
[23] = system: MDA-MB-435
[24] = system: OVCAR-8 ovarian
[25] = system: SK-MEL-28 melanoma
[26] = system: KM12 colon
[27] = system: DU-145 prostate
[28] = system: K-562 leukemia
[29] = system: MCF7 breast
[30] = system: OVCAR-5 ovarian
[31] = system: UACC-257 melanoma
[32] = system: NCI-H226 lung
[33] = system: T-47D breast
[34] = system: PC-3 prostate
[35] = system: HT29 colon
[36] = system: ACHN renal
[37] = system: UO-31 renal
[38] = system: NCI/ADR-RES ovarian
[39] = system: CCRF-CEM leukemia
[40] = system: RXF 393 renal
[41] = system: HCC-2998 colon
[42] = system: HOP-62 NSCLC
[43] = system: SW-620 colon
[44] = system: SK-OV-3 ovarian
[45] = system: HL-60(TB) leukemia
[46] = system: M14 melanoma
[47] = system: COLO 205 colon
[48] = system: IGROV1 ovarian
[49] = system: SNB-19 CNS
[50] = system: MOLT-4 leukemia
[51] = system: HCT-116 colon
[52] = system: NCI-H23 lung
[53] = system: HS 578T breast
[54] = system: BT-549 breast
[55] = system: CAKI-1 renal
[56] = system: SF-539 CNS

Measured: TGI

O=P1(O)c2ccccc2CSCc2ccccc21
> 100 µM: all assays above
